Assay: solvent given as SMILES

For `COC(=O)/C(C#N)=c1\s/c(=c2/s/c(=C(/C#N)C(=O)OC)c3cc(-c4ccc5c(c4)C(C)(C)c4ccccc4-5)sc23)c2sc(-c3ccc4c(c3)C(C)(C)c3ccccc3-4)cc12`, the absorption maximum (in Cc1ccccc1) was 630 nm.

Work on `COc1ccc(/C=C/C2=CC(/C=C/c3ccc(OC)cc3)=[O+][B-](OC(C)=O)(OC(C)=O)O2)cc1` yielded an absorption maximum (in C1CCOC1) of 456 nm, an absorption maximum (in CC#N) of 462 nm and an absorption maximum (in CC(C)=O) of 458 nm. For the same compound, the absorption maximum (in CS(C)=O) was 468 nm, the absorption maximum (in Cc1ccccc1) was 456 nm and the absorption maximum (in ClC(Cl)Cl) was 464 nm. It also gave an absorption maximum (in ClCCl) of 464 nm.

For `CCCCCCCCCCCCCCCCCCOc1ccc([B-]23NC(c4ccccc4)=Nc4cccc([n+]42)N=C(c2ccccc2)N3)cc1`, the absorption maximum (in ClCCl) was 431 nm.

Work on `CC1(C)c2ccccc2N(c2ccc(-c3cc(C#N)c(C#N)cc3-c3ccc(N4c5ccccc5C(C)(C)c5ccccc54)cc3)cc2)c2ccccc21` yielded an absorption maximum (in Cc1ccccc1) of 384 nm.

Work on `CCN(CC)c1ccc(Nc2cc3oc(-c4ccc(C#N)cc4)nc3c3ccccc23)c(C)c1` yielded an absorption maximum (in C1COCCO1) of 415 nm.

`CCOC(=O)c1ccccc1-c1c2ccc(=O)cc-2oc2cc(OC(=O)[C@H](CSCc3ccc(C)cc3)NC(=O)OC(C)(C)C)ccc12` showed an absorption maximum (in C1CCOC1) of 431 nm, an absorption maximum (in CC#N) of 431 nm and an absorption maximum (in CCO) of 435 nm. The absorption maximum (in CS(C)=O) was 457 nm.

With `CCc1ccc(-n2c3ccccc3c3cc4c(cc32)c2ccccc2n4-c2ccc(CC)s2)s1` the absorption maximum (in ClC(Cl)Cl) was 398 nm.

For `COC(=O)c1cc(=O)n(C)c2cc(-c3ccc(Oc4ccccc4)cc3)sc12`, the absorption maximum (in CC#N) was 396 nm and the absorption maximum (in ClCCl) was 398 nm.

Work on `Cc1c(C(=O)c2ccc3c4cccc5cccc(c6cccc2c63)c54)c2ccc3cccc4c5cccc6ccc1c(c65)c2c34` yielded an absorption maximum (in ClCCl) of 468 nm.

`O=P1(c2ccccc2)C(c2ccc(C(F)(F)F)cc2)=Cc2ccccc21` (centres undefined) gave an absorption maximum (in C1CCOC1) of 342 nm.

With `N#CC(C#N)=Cc1ccc2c(c1)[nH]c1c3ccccc3sc21` the absorption maximum (in ClCCl) was 445 nm.

For `O=Cc1ccc(-c2ccc(O)c(-c3nc4ccccc4s3)c2)s1`, the absorption maximum (in ClCCl) was 350 nm and the absorption maximum (in O) was 338 nm.

`COc1ccc(-c2cnc3nn4ccccc4c3c2)cc1` showed an absorption maximum (in C1CCOC1) of 386 nm.

Work on `COc1cc(OC)c2c(c1)C(=O)c1ccc(OC)cc1-2` yielded an absorption maximum (in C1CCCCC1) of 422 nm, an absorption maximum (in CC#N) of 441 nm and an absorption maximum (in CCO) of 442 nm.

`COc1cc(-c2cc(-c3ccccc3)c(-c3ccccc3)c(-c3ccccc3)c2-c2ccccc2)c(OC)cc1-c1ccc(N(C)C)cc1` showed an absorption maximum (in ClC(Cl)Cl) of 329 nm.

With `O=c1oc2cccc3c4cccc5ccc6c7ccccc7c1c(c23)c6c54` the absorption maximum (in C1CCOC1) was 409 nm.

`COc1ccc(C2=[N+]3C(=Nc4c(-c5ccccc5)cc(-c5ccc(OC)cc5)n4[B-]3(F)F)C(c3ccccc3)=C2)cc1` gave an absorption maximum (in ClC(Cl)Cl) of 688 nm and an absorption maximum (in ClCCl) of 688 nm.

Compound `CC(C)(C)c1ccc2c(c1)c1cc(C(C)(C)C)ccc1n2-c1cc(-n2c3ccc(C(C)(C)C)cc3c3cc(C(C)(C)C)ccc32)c(-n2c3ccc(C(C)(C)C)cc3c3cc(C(C)(C)C)ccc32)c(C#N)c1-n1c2ccc(C(C)(C)C)cc2c2cc(C(C)(C)C)ccc21` has an absorption maximum (in Cc1ccccc1) of 422.84 nm.

With `CCOC(=O)c1cc(C(=O)OCC)c2cc(O)ccc2n1` the absorption maximum (in CCO) was 364 nm.

`COc1ccc(-n2c(C)ccc2C)cc1` showed an absorption maximum (in CC#N) of 224 nm and an absorption maximum (in CCCCCC) of 222 nm.

`CC(C)[Si](C#Cc1c2cc3ccccc3cc2c(C#Cc2ccc(C(F)(F)F)cc2)c2cc3ccccc3cc12)(C(C)C)C(C)C` gave an absorption maximum (in ClCCl) of 654 nm.

Compound `N#Cc1c(N2CCCC2)cc(-c2ccccc2)c2c1-c1ccccc1C2=O` has an absorption maximum (in C1CCOC1) of 392 nm.

Compound `O=P(c1ccccc1)(c1ccccc1)n1c2ccccc2c2cc(-n3c4ccccc4c4ccccc43)ccc21` has an absorption maximum (in C1CCOC1) of 340 nm.

Work on `O=C(c1ccc(N2c3ccccc3Oc3ccccc32)cc1)c1cccc(C(=O)c2ccc(N3c4ccccc4Oc4ccccc43)cc2)c1` yielded an absorption maximum (in Cc1ccccc1) of 416 nm.

For `c1cc2ccc3ccc(-n4c5ccccc5c5ccccc54)c4ccc(c1)c2c34`, the absorption maximum (in CCCCCC) was 344 nm, the absorption maximum (in CCO) was 344 nm and the absorption maximum (in CCOC(C)=O) was 344 nm. For the same compound, the absorption maximum (in ClCCl) was 347 nm.

Compound `CC(C)(C)C1Nc2ccccc2C(=O)N1Cc1ccccc1` (centres undefined) has an absorption maximum (in CC#N) of 344 nm, an absorption maximum (in CCCCCCCCCCCCCCCC) of 333 nm and an absorption maximum (in CO) of 353 nm. For the same compound, the absorption maximum (in ClC(Cl)Cl) was 341 nm and the absorption maximum (in c1ccccc1) was 339 nm.

Compound `Cc1ccc(-c2c3ccc([nH]3)c3nc(c(-c4ccc(C#N)cc4)c4ccc([nH]4)c4ccc([nH]4)c(-c4ccc(C)cc4)c4ccc2o4)C=C3)cc1` has an absorption maximum (in C1CCOC1) of 451 nm, an absorption maximum (in Cc1ccccc1) of 452 nm and an absorption maximum (in c1ccccc1) of 452 nm.

Work on `CC(C)CN1C(=O)/C(=C/c2ccc(C#N)cc2)C=C1c1ccccc1` yielded an absorption maximum (in C1COCCO1) of 440 nm.

In the case of `O=S(=O)(c1cccc(-n2c3ccccc3c3ccccc32)c1)c1cccc(-n2c3ccccc3c3ccccc32)c1`, the absorption maximum (in C1CCOC1) is reported as 323 nm, the absorption maximum (in Cc1ccccc1) is reported as 338 nm and the absorption maximum (in ClC(Cl)Cl) is reported as 338 nm.

Compound `COc1ccc(-c2cnc(-c3cccnc3)o2)cc1OC` has an absorption maximum (in ClCCl) of 330 nm.

`C1=CC2C=c3c(cc4cccc5cc6ccccc6c3c45)C3=c4ccccc4=CC(=C1)C32` (centres undefined) gave an absorption maximum (in ClCCl) of 592 nm.

Work on `N#Cc1ccc(-c2ccc3c(c2)c2cc(-c4ccc(C#N)cc4)ccc2c2c3nc(-c3ccc(-c4ccc(N(c5ccccc5)c5ccccc5)cc4)cc3)n2-c2ccccc2)cc1` yielded an absorption maximum (in C1CCOC1) of 360.44 nm, an absorption maximum (in CC#N) of 360.44 nm and an absorption maximum (in CCCCCC) of 370.05 nm. For the same compound, the absorption maximum (in CCOCC) was 366.21 nm.

Work on `C(=C\c1cc(-c2ccccc2)c(/C=C/c2ccc(N(c3ccccc3)c3ccccc3)cc2)cc1-c1ccccc1)/c1ccc(N(c2ccccc2)c2ccccc2)cc1` yielded an absorption maximum (in ClCCl) of 415 nm.

Work on `COc1ccc(C(=O)NC(C)(C)C)c2c1ccc1c3ccccc3c3ccccc3c12` yielded an absorption maximum (in ClCCl) of 334 nm.

Compound `C(S/C=C/c1ccc(-c2ccc(/C=C/SC=C3CCCC3)cc2)cc1)=C1CCCC1` has an absorption maximum (in ClCCl) of 352 nm.

In the case of `CCN1c2ccc(-c3cc(C(F)(F)F)[nH]n3)cc2Sc2cc(-c3cc(C(F)(F)F)[nH]n3)ccc21`, the absorption maximum (in C1CCOC1) is reported as 336 nm, the absorption maximum (in CC#N) is reported as 336 nm and the absorption maximum (in CN(C)C=O) is reported as 336 nm. For the same compound, the absorption maximum (in ClCCl) was 334 nm and the absorption maximum (in c1ccccc1) was 336 nm.

Reference: the Deep4Chem optical property database
